Laboratory results taken from US9668960B2, “Methods useful in studying or modulating skin or hair pigmentation, plant extracts for use in compositions and cosmetic care method” (L V M H RECHERCHE, priority 2008, dated 2017).

How the values were obtained:
FM55 melanoma cells = test: Melanin assay (melanogenesis) in moderately-pigmented FM55 melanoma; assay type: cell-based, human; conditions: 72 h; for Changes in melanin levels, FM55 % change: L-18 0.001%, L-19 1%, L-20 0.5%, L-21 10 μg/ml, L-22 1%, L-23 0.05 μg/ml, IBMX 100 μM, NH4Cl 100 μM, niacinamide 10 μM, vs basal; for Melanin content, FM55 (pg/cell): same doses as E3, basal 9.92
Procedure: Cells were then washed 3-times with sterile PBS and supplemented with 350 μl of either fresh serum-free RPMI medium (melanoma cells) or starved serum-free and BPE-free melanocyte medium (EM) and incubated at 37° C. and 5% CO2 for 24 h. Cells were then washed with sterile PBS 3-times and incubated with IBMX 1×10^-4 M at 37° C. and 5% CO2 for 12, 24, and 72 h. Cells were then gently washed 3-times with sterile PBS and fixed in ice-cold methanol for 10 minutes at -20° C. Slides were stored at -20° C. until immunocytochemistry was performed. […] The melanin standards were pipetted into a 96 well plate to produce a calibration curve for the assessment of melanin content in the test samples. 400 μl of 1 M NaOH was added to each cell pellet and dissolved on a heat block (100° C.) for 15 minutes. The pellets were vortexed vigorously and the solubilized pellet was pipetted into the same 96-well plate. The optical densities of the sample were read at […] on a DYNEX REVELATION 4.02 program. Melanin content of each test sample was read from the calibration curve. […] In addition IBMX and NH4Cl (positive melanocytic modulators) and niacinamide (negative modulator) were used as controls. […] Controls: Melanocytic modulators: IBMX (100 μM), NH4Cl (100 μM), and niacinamide (10 μM). (A) Melanin content was determined spectrophotometrically (475 nm) after sodium hydroxide solubilisation. […] (B). Results were expressed as the change in melanin content (pg/cell) compared to unstimulated control levels. Means are ±SEM of 3 independent experiments with *P<0.05, **P<0.01, ***P<0.001.

Myo-X = Myo-X expression by double immunolabelling in normal human melanocytes; assay type: cell-based
Procedure: Immunofluorescence staining: For EM:KC co-culture studies fully matched melanocytes (p4) and keratinocytes (p2) were seeded onto 8-well Lab-Tek® chamber slides at a cell density of 1×10^4 cells/well and in a ratio of 1 melanocyte to 10 keratinocytes. Co-cultures were maintained overnight (16 h) in a mixture of full K-SFM and MEM (co-culture medium) to allow cell attachment, followed by medium replenishment for a further 24 h. Cells were then fixed in ice-cold methanol for 10 min at −20° C., washed in PBS and then blocked with 10% donkey serum for the detection of protein expression in filopodia.
For double labelling experiments the first primary antibody, Myo-X (1:100) (Santa Cruz, Calif., USA) was applied overnight at 4° C., followed by incubation with FITC-conjugated secondary antibody (1:100) for 1 h at room temperature. The second primary antibody, either cytokeratin (1:100) (Abeam, Cambridge, UK) or β-Actin (1:100) (Santa Cruz, USA) or Fascin (1:100) (Santa Cruz, USA) or NKi/beteb (1:30) (Monosan) was applied for 1 h at room temperature followed by a TRITC-conjugated secondary antibody (1:100) (Jackson Immunoresearch Laboratories, Inc., West Grove, USA). DAPI (Vector Laboratories, Burlingame, Calif.) was used to stain nuclei. Images were captured with a cooled Hamamatsu digital camera using a 100× objective and post-processed using Paint Shop Pro (Jasc Software Ver. 7. CA, USA). Negative controls included the omission of primary antibody and replacement with non-immune serum from secondary antibody host and inclusion of secondary antibodies.
Myo-X was also detected in EM filopodia.

Structure (SMILES) | Changes in melanin levels, FM55 % change (FM55 melanoma cells) | Melanin content, FM55 (pg/cell) (FM55 melanoma cells) | effect on melanin content compared with basal levels (FM55 melanoma cells; FM55 melanoma cells, doses as E3) | Myo-X expression in EM (immunolabelling, words) (Myo-X; compared with untreated cells) | Myo-X localization in EM filopodia (Myo-X; compared with untreated cells) | overall number of filopodia (Myo-X; total number of yellow spots beyond EM dendritic tips)
CC(C)Cn1c(=O)n(C)c(=O)c2[nH]cnc21 [IBMX] | +250.8% | (34.8) pg/cell | visible increases in melanogenesis | increased the expression of Myo-X | enhanced Myo-X localization in EM filopodia | increased
NC(=O)c1cccnc1 [niacinamide] | −5.94% | (9.33) pg/cell |  |  |  | 
